Experimental findings from patent US20260132132A1, “3A,4,5,6-TETRAHYDRO-1 H-PYRAZOLO[3,4-C]PYRIDIN-7(7AH)-ONE DERIVATIVES AS FACTOR XIIA INHIBITORS” (KALVISTA PHARMACEUTICALS LIMITED, priority 2022, published 2026) are described below.

In assay [1] the target is T1, Human Factor XIIa (hFXIIa) (Homo sapiens, UniProt P00748).
T1 construct: purchased Enzyme Research Laboratories
T1 sequence (P00748 373-615 limits assumed): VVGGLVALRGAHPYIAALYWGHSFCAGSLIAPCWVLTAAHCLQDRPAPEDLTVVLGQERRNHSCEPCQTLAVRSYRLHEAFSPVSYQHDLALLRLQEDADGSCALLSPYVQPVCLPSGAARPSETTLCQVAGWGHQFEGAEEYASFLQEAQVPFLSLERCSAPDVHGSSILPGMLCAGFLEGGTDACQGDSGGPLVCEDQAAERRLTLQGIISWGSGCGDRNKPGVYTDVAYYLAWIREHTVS
T1 sequence (P00748 20-372 partner limits assumed): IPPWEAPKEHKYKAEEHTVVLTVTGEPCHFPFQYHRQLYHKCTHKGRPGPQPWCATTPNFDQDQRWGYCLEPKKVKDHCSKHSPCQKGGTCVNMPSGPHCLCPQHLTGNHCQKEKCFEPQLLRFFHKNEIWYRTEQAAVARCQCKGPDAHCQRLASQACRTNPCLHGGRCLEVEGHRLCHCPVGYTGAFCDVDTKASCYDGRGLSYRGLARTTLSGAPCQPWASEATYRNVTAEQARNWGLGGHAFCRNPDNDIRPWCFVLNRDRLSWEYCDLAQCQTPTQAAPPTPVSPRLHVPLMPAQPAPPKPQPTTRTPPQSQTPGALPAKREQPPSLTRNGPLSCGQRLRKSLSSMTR
The assay can be described thus: Determination of Human Factor XIIa (hFXIIa) inhibition, fluorogenic substrate IC50 assay. The assay is classed as biochemical. Particulars: fluorogenic substrate H-DPro-Phe-Arg-AFC at Km, 25° C., read-out: Human FXIIa IC50. As for the experimental part: Determination of Human Factor XIIa (hFXIIa) inhibition
The Km for the cleavage of the substrate by hFXIIa was determined by standard transformation of the Michaelis-Menten equation, with subsequent inhibition assays performed at substrate Km concentration.

A further assay addresses FXa (Homo sapiens, UniProt P00742). As to the kind of experiment: Related protease inhibition: FXa, fluorogenic substrate. The assay is classed as biochemical. Particulars: fluorogenic substrate at Km, 25° C.; H1-H3 = % activity at 40 μM. As for the experimental part: Human serine protease enzyme Plasma Kallikrein, KLK1, FXa, Plasmin, Thrombin and Trypsin were assayed for enzymatic activity using an appropriate fluorogenic substrate at Km concentration, FXIa at fixed substrate concentration of 100 μM and various concentrations of the test compound.

Chain of FXa (P00742 235-488 limits assumed): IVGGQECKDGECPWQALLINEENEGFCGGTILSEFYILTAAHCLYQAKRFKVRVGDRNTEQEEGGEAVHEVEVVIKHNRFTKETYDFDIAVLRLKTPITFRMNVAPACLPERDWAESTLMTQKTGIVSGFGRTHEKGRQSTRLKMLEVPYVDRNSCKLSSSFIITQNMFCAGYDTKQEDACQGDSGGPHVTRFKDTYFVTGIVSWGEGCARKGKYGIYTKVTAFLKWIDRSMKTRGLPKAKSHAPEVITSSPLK
Chain of FXa (P00742 41-179 partner limits assumed): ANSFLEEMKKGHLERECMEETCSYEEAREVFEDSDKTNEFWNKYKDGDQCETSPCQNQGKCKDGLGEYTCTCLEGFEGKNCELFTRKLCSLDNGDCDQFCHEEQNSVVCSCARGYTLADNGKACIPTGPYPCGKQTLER

As for `CN1CCc2ccc(N3CCc4c(C(=O)N[C@@H](CO)C5CC5)nn(-c5cccc(Cl)c5)c4C3=O)cc2C1=O` [Example 1404, (R)-1-(3-chlorophenyl)-N-(1-cyclopropyl-2-hydroxyethyl)-6-(2-methyl-1-oxo-1,2,3,4-tetrahydroisoquinolin-7-yl)-7-oxo-4,5,6,7-tetrahydro-1H-pyrazolo[3,4-c]pyridine-3-carboxamide], the values for the concentration for half-maximal inhibition (IC50) (in assay [1]; on FXa) were 100 to 300 nM and over 40000 nM, respectively.

For the compound `Cc1ccncc1CNC(=O)c1nn(-c2cccc(Cl)c2)c2c1CCN(c1ccc3c(c1)C(=O)N(CCO)CCO3)C2=O` [Example 1299, 1-(3-chlorophenyl)-6-(4-(2-hydroxyethyl)-5-oxo-2,3,4,5-tetrahydrobenzo[f][1,4]oxazepin-7-yl)-N-((4-methylpyridin-3-yl)methyl)-7-oxo-4,5,6,7-tetrahydro-1H-pyrazolo[3,4-c]pyridine-3-carboxamide], the IC50 fell in the range of 10 to 100 nM in assay [1] and 10000 to 40000 nM against FXa.

With `O=C(NCc1ccn[nH]1)c1nn(-c2cccc(Cl)c2)c2c1CCN(c1ccc3c(c1)CN(CCO)CC3)C2=O` [Example 1089, N-((1H-pyrazol-5-yl)methyl)-1-(3-chlorophenyl)-6-(2-(2-hydroxyethyl)-1,2,3,4-tetrahydroisoquinolin-7-yl)-7-oxo-4,5,6,7-tetrahydro-1H-pyrazolo[3,4-c]pyridine-3-carboxamide], the IC50 in assay [1] fell in the range of 10 to 100 nM; on FXa it was 10000 to 40000 nM.

Regarding `CCN1CCc2ccc(N3CCc4c(C(=O)NCc5nn(C)cc5C)nn(-c5cccc(Cl)c5)c4C3=O)cc2C1=O` [Example 1224, 1-(3-chlorophenyl)-N-((1,4-dimethyl-1H-pyrazol-3-yl)methyl)-6-(2-ethyl-1-oxo-1,2,3,4-tetrahydroisoquinolin-7-yl)-7-oxo-4,5,6,7-tetrahydro-1H-pyrazolo[3,4-c]pyridine-3-carboxamide], the IC50 was 100 to 300 nM in assay [1] and over 40000 nM against FXa.

As for `COc1cncc(CNC(=O)c2nn(-c3cccc(Cl)c3)c3c2CCN(c2ccc4c(c2)CN(CCO)CC4)C3=O)c1` [Example 1141, 1-(3-chlorophenyl)-6-(2-(2-hydroxyethyl)-1,2,3,4-tetrahydroisoquinolin-7-yl)-N-((5-methoxypyridin-3-yl)methyl)-7-oxo-4,5,6,7-tetrahydro-1H-pyrazolo[3,4-c]pyridine-3-carboxamide], the IC50 in assay [1] was 10 to 100 nM; against FXa, 3000 to 10000 nM.

`O=C(NCc1ccco1)c1nn(-c2cccc(Cl)c2)c2c1CCN(c1ccc3c(c1)CN(CCO)CC3)C2=O` [Example 1109, 1-(3-chlorophenyl)-N-(furan-2-ylmethyl)-6-(2-(2-hydroxyethyl)-1,2,3,4-tetrahydroisoquinolin-7-yl)-7-oxo-4,5,6,7-tetrahydro-1H-pyrazolo[3,4-c]pyridine-3-carboxamide]: the IC50 is 10 to 100 nM in assay [1] and over 40000 nM against FXa.

In the case of `Cc1cc(CNC(=O)c2nn(-c3cccc(Cl)c3)c3c2CCN(c2ccc4c(c2)C(=O)N(CCO)[C@@H](C)CO4)C3=O)nn1C` [Example 1379, (S)-1-(3-chlorophenyl)-N-((1,5-dimethyl-1H-pyrazol-3-yl)methyl)-6-(4-(2-hydroxyethyl)-3-methyl-5-oxo-2,3,4,5-tetrahydrobenzo[f][1,4]oxazepin-7-yl)-7-oxo-4,5,6,7-tetrahydro-1H-pyrazolo[3,4-c]pyridine-3-carboxamide], the IC50 in assay [1] fell in the range of 300 to 1000 nM; against FXa it was 3000 to 10000 nM.

Take `Cc1cc(CNC(=O)c2nn(-c3cccc(Cl)c3)c3c(=O)n(-c4ccc5c(c4)C(=O)N(C)CC5)c(C)nc23)n[nH]1` [Example 3020, 1-(3-chlorophenyl)-5-methyl-6-(2-methyl-1-oxo-1,2,3,4-tetrahydroisoquinolin-7-yl)-N-((5-methyl-1H-pyrazol-3-yl)methyl)-7-oxo-6,7-dihydro-1H-pyrazolo[4,3-d]pyrimidine-3-carboxamide]: the values for the half-inhibitory concentration (IC50) (in assay [1]; against FXa) were 100 to 300 nM and 10000 to 40000 nM, respectively.

For the compound `CCNC(=O)c1nn(-c2cccc(Cl)c2C)c2c1CCN(c1ccc3c(c1)C(=O)N(C)CC3)C2=O` [Example 2036, 1-(3-chloro-2-methylphenyl)-N-ethyl-6-(2-methyl-1-oxo-1,2,3,4-tetrahydroisoquinolin-7-yl)-7-oxo-4,5,6,7-tetrahydro-1H-pyrazolo[3,4-c]pyridine-3-carboxamide], the IC50 is 1000 to 3000 nM in assay [1] and over 40000 nM against FXa.

Take `Cc1cc(CNC(=O)c2nn(-c3cccc(Cl)c3)c3c2CCN(c2ccc4c(c2)C(=O)N(CCF)CC4)C3=O)nn1C` [Example 1254, 1-(3-chlorophenyl)-N-((1,5-dimethyl-1H-pyrazol-3-yl)methyl)-6-(2-(2-fluoroethyl)-1-oxo-1,2,3,4-tetrahydroisoquinolin-7-yl)-7-oxo-4,5,6,7-tetrahydro-1H-pyrazolo[3,4-c]pyridine-3-carboxamide]: the figures for the IC50 (in assay [1]; against FXa) were 10 to 100 nM and 10000 to 40000 nM, respectively.

Take `Cc1ccncc1CNC(=O)c1nn(-c2cccc(Cl)c2)c2c1CCN(c1ccc3c(c1)CN(C)CC3)C2=O` [Example 1129, 1-(3-chlorophenyl)-6-(2-methyl-1,2,3,4-tetrahydroisoquinolin-7-yl)-N-((4-methylpyridin-3-yl)methyl)-7-oxo-4,5,6,7-tetrahydro-1H-pyrazolo[3,4-c]pyridine-3-carboxamide]: the IC50 in assay [1] lay within 10 to 100 nM; on FXa, 3000 to 10000 nM.

With `Cc1nc2c(C(=O)NCC3CC3)nn(-c3cccc(Cl)c3)c2c(=O)n1-c1ccc2c(c1)CN(CCO)CC2` [Example 3003, 1-(3-chlorophenyl)-N-(cyclopropylmethyl)-6-(2-(2-hydroxyethyl)-1,2,3,4-tetrahydroisoquinolin-7-yl)-5-methyl-7-oxo-6,7-dihydro-1H-pyrazolo[4,3-d]pyrimidine-3-carboxamide], the figures for the IC50 (in assay [1]; on FXa) were 100 to 300 nM and over 40000 nM, respectively.

As to `CCNC(=O)c1nn(-c2cccc(Cl)c2)c2c(=O)n(-c3ccc4c(c3)C(=O)N(C)CC4)c(C)nc12` [Example 3022, 1-(3-chlorophenyl)-N-ethyl-5-methyl-6-(2-methyl-1-oxo-1,2,3,4-tetrahydroisoquinolin-7-yl)-7-oxo-6,7-dihydro-1H-pyrazolo[4,3-d]pyrimidine-3-carboxamide], the IC50 in assay [1] was in the range of 300 to 1000 nM; against FXa, 10000 to 40000 nM.

For the compound `Cc1cc(CNC(=O)c2nn(-c3cccc(Cl)c3)c3c2CCN(c2ccc4c(c2)C(=O)N(C(C)C)CCO4)C3=O)nn1C` [Example 1320, 1-(3-chlorophenyl)-N-((1,5-dimethyl-1H-pyrazol-3-yl)methyl)-6-(4-isopropyl-5-oxo-2,3,4,5-tetrahydrobenzo[f][1,4]oxazepin-7-yl)-7-oxo-4,5,6,7-tetrahydro-1H-pyrazolo[3,4-c]pyridine-3-carboxamide], the figures for the IC50 (in assay [1]; on FXa) were 100 to 300 nM and over 40000 nM, respectively.

On to `CCN1CCc2ccc(N3CCc4c(C(=O)NCc5cnccc5C)nn(-c5cccc(Cl)c5)c4C3=O)cc2C1` [Example 1140, 1-(3-chlorophenyl)-6-(2-ethyl-1,2,3,4-tetrahydroisoquinolin-7-yl)-N-((4-methylpyridin-3-yl)methyl)-7-oxo-4,5,6,7-tetrahydro-1H-pyrazolo[3,4-c]pyridine-3-carboxamide], for which the IC50 was 10 to 100 nM in assay [1] and 3000 to 10000 nM against FXa.

For `CCN1Cc2cc(N3CCc4c(C(=O)NCC5CC5)nn(-c5cccc(Cl)c5)c4C3=O)ccc2[C@@H](C)C1` [Example 1153, (R)-1-(3-chlorophenyl)-N-(cyclopropylmethyl)-6-(2-ethyl-4-methyl-1,2,3,4-tetrahydroisoquinolin-7-yl)-7-oxo-4,5,6,7-tetrahydro-1H-pyrazolo[3,4-c]pyridine-3-carboxamide], the IC50 fell in the range of 300 to 1000 nM in assay [1] and 10000 to 40000 nM against FXa.

On to `CN1CCc2ccc(N3CCc4c(C(=O)NCC5CC5)nn(-c5cccc(C(N)=O)c5)c4C3=O)cc2C1=O` [Example 2006, 1-(3-carbamoylphenyl)-N-(cyclopropylmethyl)-6-(2-methyl-1-oxo-1,2,3,4-tetrahydroisoquinolin-7-yl)-7-oxo-4,5,6,7-tetrahydro-1H-pyrazolo[3,4-c]pyridine-3-carboxamide], for which the IC50 in assay [1] is 10000 to 40000 nM; at FXa it was over 40000 nM.

With `Cc1cc(CNC(=O)c2nn(-c3cccc(Cl)c3)c3c2CCN(c2ccc4c(c2)C(=O)N(C)CC4)C3=O)n(C)n1` [Example 1264, 1-(3-chlorophenyl)-N-((1,3-dimethyl-1H-pyrazol-5-yl)methyl)-6-(2-methyl-1-oxo-1,2,3,4-tetrahydroisoquinolin-7-yl)-7-oxo-4,5,6,7-tetrahydro-1H-pyrazolo[3,4-c]pyridine-3-carboxamide], the IC50 fell in the range of 300 to 1000 nM in assay [1] and 10000 to 40000 nM against FXa.

As a reminder, the IC50 is the point on the concentration scale where inhibition reaches its midpoint.
